{
  "source": "patent US20260021296A1",
  "about": "“ION[…]” (KANEKA CORPORATION, priority 2023, published 2026)",
  "test": "Evaluation of skin permeability of drug by iontophoresis in a vertical Franz cell",
  "type": "in vitro ADME, hairless rat (HWY/Slc)",
  "protocol": "The excised abdominal skin of a depilated male hairless rat (HWY/Slc, SPF, 5 weeks old) was punched into a 3.2 cm diameter circle and set in a vertical Franz cell. To the donor chamber of the Franz cell, 1.5 mL of a 0.5 wt % lanreotide acetate solution was added as a drug 31, and a zinc plate (0.5 cm×2 cm×0.5 mm) was immersed therein to form an anode 21. PBS was used as a receptor solution in the receptor chamber, and a silver/silver chloride rod (11 cm in length, 1 mm q in diameter) was inserted from the sampling port to form a cathode 22. The zinc plate and the silver/silver chloride rod were connected to the same power supply 10 and control unit 50 as those used in the skin irritability evaluation described above.\nExample 4: A pulse current with a frequency of […], a period of 100 ms, a duty ratio of 50%, a rectangular waveform, and a current density of 0.35 mA/cm^2 was applied.\nComparative Example 6: Instead of a pulse current, a current with a substantially constant current value and a current density of 0.35 mA/cm^2 was applied.\nComparative Example 7: No current was applied.\nIn order to match the total time of current application (total amount of applied current), the current was applied for 6 hours in Example 4 and for 3 hours in Comparative Example 6. Example 4 and Comparative Examples 6 to 7 were all conducted with n=3.\nThree items were evaluated: the cumulative amount of drug permeated, the permeation rate, and the relationship between the cumulative permeation amount and the quantity of electricity.\nThe receptor solution was sampled every hour, the amount of drug permeated through the skin was quantified by high-performance liquid chromatography (HPLC), and the above three items were evaluated with time. In Comparative Example 6, even after the end of the current application, the sampling was continued until 6 hours elapsed from the start of the test, as in Example 4 and Comparative Example 7. The HPLC measurement conditions are shown below.",
  "data": [
    {"smiles": "CC(C)[C@@H]1NC(=O)[C@H](CCCCN)NC(=O)[C@@H](Cc2c[nH]c3ccccc23)NC(=O)[C@H](Cc2ccc(O)cc2)NC(=O)[C@@H](NC(=O)[C@H](N)Cc2ccc3ccccc3c2)CSSC[C@@H](C(=O)N[C@H](C(N)=O)[C@@H](C)O)NC1=O", "note": "[lanreotide acetate]", "values": [
      {"measurement": "time from start of test at which permeation of the drug through the skin was observed", "setting": "Comparative Example 6: substantially constant current 0.35 mA/cm^2, applied 3 hours, 0.5 wt % solution, n=3", "value": "about 2 hours"},
      {"measurement": "drug skin permeability (rank among current conditions, FIGS. 8 and 9)", "setting": "Comparative Example 7: no current applied", "value": "lowest"},
      {"measurement": "time from start of test until which permeation of the drug through the skin was not observed", "setting": "Comparative Example 7: no current applied, 0.5 wt % solution, n=3", "value": "≥ 4", "unit": "h"},
      {"measurement": "drug skin permeability (rank among current conditions, FIGS. 8 and 9)", "setting": "Example 4: pulse current 5 Hz, duty ratio 50%, 0.35 mA/cm^2", "value": "highest"},
      {"measurement": "time from start of test at which permeation of the drug through the skin was observed", "setting": "Example 4: pulse current 5 Hz, duty ratio 50%, rectangular waveform, 0.35 mA/cm^2, applied 6 hours, 0.5 wt % solution, n=3", "value": "about 2 hours"},
      {"measurement": "cumulative permeation amount of Example 4 relative to Comparative Example 6 at the same quantity of electricity (final)", "setting": "pulse current (Example 4) versus constant current (Comparative Example 6), 0.35 mA/cm^2, FIG. 10", "value": "≥ 5", "unit": "times"}
    ]}
  ]
}
